These results are taken from US20200131156A1, “ARYLSULFONYLPYROLECARBOXAMIDE DERIVATIVES AS Kv3 POTASSIUM CHANNEL ACTIVATORS” (H. Lundbeck A/S, priority 2018, published 2020).

This test has as its target T1, hKv3.1b (Homo sapiens, UniProt P48547).
T1 construct: expressed in transfected cells
T1 sequence (P48547 1-585 isoform P48547-2): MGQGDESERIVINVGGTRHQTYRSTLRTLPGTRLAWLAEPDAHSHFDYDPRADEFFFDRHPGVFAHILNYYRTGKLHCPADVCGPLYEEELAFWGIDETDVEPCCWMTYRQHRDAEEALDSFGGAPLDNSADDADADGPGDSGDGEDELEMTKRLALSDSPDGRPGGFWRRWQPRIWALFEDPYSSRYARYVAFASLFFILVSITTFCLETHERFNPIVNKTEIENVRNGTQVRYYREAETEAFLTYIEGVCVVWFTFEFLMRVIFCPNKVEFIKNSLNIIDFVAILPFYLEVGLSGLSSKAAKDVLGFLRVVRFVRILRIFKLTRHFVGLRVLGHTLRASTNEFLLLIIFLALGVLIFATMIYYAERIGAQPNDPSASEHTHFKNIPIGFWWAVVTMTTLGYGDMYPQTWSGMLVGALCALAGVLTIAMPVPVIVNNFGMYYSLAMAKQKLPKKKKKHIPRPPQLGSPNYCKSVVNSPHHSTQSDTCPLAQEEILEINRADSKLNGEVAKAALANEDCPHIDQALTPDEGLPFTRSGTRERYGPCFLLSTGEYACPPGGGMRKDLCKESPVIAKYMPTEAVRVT
In words: Automated patch clamp (QPatch-16x) on HEK-293 cells stably expressing hKv3.1b. Type of test: cell-based. The note with it: for ECdelta5 mV: concentration needed to shift the activation threshold 5 mV; for Threshold Shift: maximum absolute hyperpolarizing shift of activation threshold at tested concentrations 0.37-30 μM. In short, it runs like this:
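Whole-cell automated patch clamp, extracellular pH 7.4, 4 mM Na2ATP intracellular; holding −80 mV, 200 ms steps −70 to +10 mV. Five ascending concentrations (0.37–30 μM) per cell, ~3 min each, 0.33% DMSO vehicle. Activation threshold (5% of vehicle peak at 10 mV) shift fitted sigmoidally; ECdelta5 mV read from curve.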
A general note: The patch-clamp technique gives a direct electrical read-out from membranes.

`Cc1cnc(CNC(=O)c2ccn(S(=O)(=O)c3ccccc3)c2)c(Cl)n1` [Compound 113, 1-(benzenesulfonyl)-N-[(3-chloro-5-methylpyrazin-2-yl)methyl]-1H-pyrrole-3-carboxamide]: the “ECdelta5 mV” value was 3500 nM and the “Threshold Shift” value is 14 mV.

Take `Cc1ccc(S(=O)(=O)n2ccc(C(=O)NCc3cnc4nccn4c3)c2)cc1` [Compound 24, N-(imidazo[1,2-a]pyrimidin-6-ylmethyl)-1-(p-tolylsulfonyl)pyrrole-3-carboxamide]: the “ECdelta5 mV” value is reported as 3200 nM and the “Threshold Shift” value worked out at 24 mV.

In the case of `Cc1ccc(S(=O)(=O)n2ccc(C(=O)NCc3ccon3)c2)cc1` [Compound 52, 1-(4-methylbenzene-1-sulfonyl)-N-[(1,2-oxazol-3-yl)methyl]-1H-pyrrole-3-carboxamide], the “ECdelta5 mV” value is reported as 2500 nM and the “Threshold Shift” value is reported as 13 mV.

Take `Cc1ccc(S(=O)(=O)n2ccc(C(=O)NCc3ccccn3)c2)cc1` [Compound 9, 1-(p-tolylsulfonyl)-N-(2-pyridylmethyl) pyrrole-3-carboxamide]: the “ECdelta5 mV” value worked out at 2400 nM and the “Threshold Shift” value came out at 15 mV.

For the compound `O=C(NCc1cnccn1)c1ccn(S(=O)(=O)c2ccc(F)cc2)c1` [Compound 64, 1-(4-fluorobenzene-1-sulfonyl)-N-[(pyrazin-2-yl)methyl]-1H-pyrrole-3-carboxamide], the “ECdelta5 mV” value stood at 4400 nM and the “Threshold Shift” value is on record as 13 mV.

Regarding `Cc1ccc(S(=O)(=O)n2ccc(C(=O)NCc3ccc(C)nc3)c2)cc1` [Compound 26, N-[(6-methyl-3-pyridyl)methyl]-1-(p-tolylsulfonyl)pyrrole-3-carboxamide], the “ECdelta5 mV” value turned out to be 930 nM and the “Threshold Shift” value was found to be 22 mV.

As for `Cc1ccc(S(=O)(=O)n2ccc(C(=O)NCc3cnsc3)c2)cc1` [Compound 55, 1-(4-methylbenzene-1-sulfonyl)-N-[(1,2-thiazol-4-yl)methyl]-1H-pyrrole-3-carboxamide], the “ECdelta5 mV” value stood at 1500 nM and the “Threshold Shift” value is on record as 15 mV.

For the compound `COc1cccnc1CNC(=O)c1ccn(S(=O)(=O)c2ccc(C)cc2)c1` [Compound 10, N-[(3-methoxy-2-pyridyl)methyl]-1-(p-tolylsulfonyl)pyrrole-3-carboxamide], the “ECdelta5 mV” value is 3600 nM and the “Threshold Shift” value is reported as 10 mV.

Consider `Cc1ccc(S(=O)(=O)n2ccc(C(=O)NCc3cnc(C)cn3)c2)cc1` [Compound 25, N-[(5-methylpyrazin-2-yl)methyl]-1-(p-tolylsulfonyl) pyrrole-3-carboxamide], for which the “ECdelta5 mV” value came to 1100 nM and the “Threshold Shift” value came to 37 mV.
